Assay results reported in patent US8044069B2, “Compounds as calcium channel blockers” (Abbott Laboratories, priority 2008, dated 2011).

Target: human Cav2.2 (Homo sapiens, UniProt Q00975)
Experiment: Assessment of calcium channel activity using FLIPR (Ca2+ influx in IMR32 cells)
Format: cell-based
Conditions: IMR32 cells endogenously expressing human Cav2.2; 60 minute pre-incubation; 2 μM nifedipine; depolarized with 80 mM KCl, 5 mM CaCl2
Description: (i) In Vitro Methods—Assessment of Calcium Channel Activity Using FLIPR:
The IMR32 cells were maintained in MEM media containing 10% (v/v) FBS, 1% (v/v) antibiotic/antimitotic, 1% (v/v) sodium pyruvate and 1% (v/v) MEM NEAA. Following dissociation in 0.05% (v/v) trypsin/EDTA, cells were seeded into black 1×96-well plates (Corning Cellbind) at a density of 1-1.2×10^5 cells/well and incubated in the maintenance media above for 48 hours at 37° C. […] After dye loading and a subsequent 60 minute pre-incubation with compounds (full log dilutions from 10 μM to 0.1 nM) in the presence of 1.3 mM CaCl2 and 2 μM nifedipine to block endogenous L-type channels, the external Ca^2+ concentration was increased to 5 mM CaCl2 and the cells concomitantly depolarized with 80 mM KCl to assay channel activity. To determine the IC50 values, the percent inhibition of the compound at each concentration was determined relative to the activity in the absence of inhibitor, and data was fitted using non-linear regression sigmoidal dose response curve analysis with GraphPad Prism®.

Sequence of human Cav2.2 (Q00975 whole entry): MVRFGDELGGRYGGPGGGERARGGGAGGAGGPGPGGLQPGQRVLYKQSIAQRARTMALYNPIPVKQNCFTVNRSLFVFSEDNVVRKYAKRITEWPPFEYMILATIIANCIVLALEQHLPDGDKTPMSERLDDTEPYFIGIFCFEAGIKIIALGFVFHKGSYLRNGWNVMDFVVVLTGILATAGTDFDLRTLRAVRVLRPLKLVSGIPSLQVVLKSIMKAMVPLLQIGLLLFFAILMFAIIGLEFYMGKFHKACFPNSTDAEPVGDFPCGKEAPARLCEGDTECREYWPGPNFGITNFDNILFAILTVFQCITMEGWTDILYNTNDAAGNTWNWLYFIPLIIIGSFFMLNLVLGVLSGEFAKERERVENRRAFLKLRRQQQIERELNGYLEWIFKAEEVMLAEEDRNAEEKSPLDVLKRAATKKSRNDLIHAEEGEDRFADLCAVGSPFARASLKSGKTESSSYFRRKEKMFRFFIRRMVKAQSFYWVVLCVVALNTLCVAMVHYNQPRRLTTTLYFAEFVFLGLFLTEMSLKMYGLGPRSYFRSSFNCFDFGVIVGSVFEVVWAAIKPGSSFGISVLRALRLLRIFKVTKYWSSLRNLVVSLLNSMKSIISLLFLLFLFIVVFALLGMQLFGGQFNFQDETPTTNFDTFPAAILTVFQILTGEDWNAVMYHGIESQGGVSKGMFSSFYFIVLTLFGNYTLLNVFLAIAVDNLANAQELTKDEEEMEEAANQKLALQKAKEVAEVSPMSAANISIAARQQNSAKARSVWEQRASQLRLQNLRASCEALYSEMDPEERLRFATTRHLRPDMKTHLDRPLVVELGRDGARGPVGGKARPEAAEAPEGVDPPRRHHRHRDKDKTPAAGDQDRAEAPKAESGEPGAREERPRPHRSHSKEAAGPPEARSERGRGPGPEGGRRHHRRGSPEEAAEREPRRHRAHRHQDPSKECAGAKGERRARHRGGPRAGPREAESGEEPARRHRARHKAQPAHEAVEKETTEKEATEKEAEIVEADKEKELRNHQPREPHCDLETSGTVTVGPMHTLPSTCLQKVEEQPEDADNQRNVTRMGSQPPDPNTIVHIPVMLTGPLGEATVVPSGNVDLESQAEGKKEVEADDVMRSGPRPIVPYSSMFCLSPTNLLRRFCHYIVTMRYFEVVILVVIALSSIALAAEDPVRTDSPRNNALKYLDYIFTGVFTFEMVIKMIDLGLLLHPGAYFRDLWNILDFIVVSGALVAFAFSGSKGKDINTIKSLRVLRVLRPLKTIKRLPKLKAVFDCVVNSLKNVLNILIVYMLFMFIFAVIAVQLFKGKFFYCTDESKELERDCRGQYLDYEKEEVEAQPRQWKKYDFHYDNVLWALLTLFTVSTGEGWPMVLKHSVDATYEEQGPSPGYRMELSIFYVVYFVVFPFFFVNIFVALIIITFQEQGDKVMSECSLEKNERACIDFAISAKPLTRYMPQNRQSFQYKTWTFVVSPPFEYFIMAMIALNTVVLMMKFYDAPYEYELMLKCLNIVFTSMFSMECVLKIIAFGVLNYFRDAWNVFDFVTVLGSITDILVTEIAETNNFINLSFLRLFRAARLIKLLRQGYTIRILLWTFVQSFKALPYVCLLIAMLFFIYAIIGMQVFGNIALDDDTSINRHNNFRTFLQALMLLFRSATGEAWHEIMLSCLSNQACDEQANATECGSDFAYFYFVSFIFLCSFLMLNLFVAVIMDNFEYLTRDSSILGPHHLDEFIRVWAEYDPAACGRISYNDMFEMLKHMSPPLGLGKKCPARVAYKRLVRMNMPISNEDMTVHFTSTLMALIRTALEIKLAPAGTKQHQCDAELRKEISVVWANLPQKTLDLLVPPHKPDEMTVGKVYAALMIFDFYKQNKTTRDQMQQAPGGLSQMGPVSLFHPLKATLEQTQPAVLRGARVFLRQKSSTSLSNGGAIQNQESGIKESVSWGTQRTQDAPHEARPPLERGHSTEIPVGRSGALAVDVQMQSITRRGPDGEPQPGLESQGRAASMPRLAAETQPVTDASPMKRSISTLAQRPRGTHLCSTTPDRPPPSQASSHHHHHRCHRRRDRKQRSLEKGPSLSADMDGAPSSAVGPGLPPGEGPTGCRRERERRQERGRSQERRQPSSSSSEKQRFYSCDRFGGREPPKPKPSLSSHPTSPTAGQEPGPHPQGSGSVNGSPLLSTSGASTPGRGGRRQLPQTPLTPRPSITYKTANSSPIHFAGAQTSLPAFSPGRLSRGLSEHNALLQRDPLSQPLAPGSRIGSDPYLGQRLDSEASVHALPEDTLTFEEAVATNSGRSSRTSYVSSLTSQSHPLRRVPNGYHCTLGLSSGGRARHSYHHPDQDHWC
Sequence of human Cav2.2 (P54289 25-951 partner limits assumed): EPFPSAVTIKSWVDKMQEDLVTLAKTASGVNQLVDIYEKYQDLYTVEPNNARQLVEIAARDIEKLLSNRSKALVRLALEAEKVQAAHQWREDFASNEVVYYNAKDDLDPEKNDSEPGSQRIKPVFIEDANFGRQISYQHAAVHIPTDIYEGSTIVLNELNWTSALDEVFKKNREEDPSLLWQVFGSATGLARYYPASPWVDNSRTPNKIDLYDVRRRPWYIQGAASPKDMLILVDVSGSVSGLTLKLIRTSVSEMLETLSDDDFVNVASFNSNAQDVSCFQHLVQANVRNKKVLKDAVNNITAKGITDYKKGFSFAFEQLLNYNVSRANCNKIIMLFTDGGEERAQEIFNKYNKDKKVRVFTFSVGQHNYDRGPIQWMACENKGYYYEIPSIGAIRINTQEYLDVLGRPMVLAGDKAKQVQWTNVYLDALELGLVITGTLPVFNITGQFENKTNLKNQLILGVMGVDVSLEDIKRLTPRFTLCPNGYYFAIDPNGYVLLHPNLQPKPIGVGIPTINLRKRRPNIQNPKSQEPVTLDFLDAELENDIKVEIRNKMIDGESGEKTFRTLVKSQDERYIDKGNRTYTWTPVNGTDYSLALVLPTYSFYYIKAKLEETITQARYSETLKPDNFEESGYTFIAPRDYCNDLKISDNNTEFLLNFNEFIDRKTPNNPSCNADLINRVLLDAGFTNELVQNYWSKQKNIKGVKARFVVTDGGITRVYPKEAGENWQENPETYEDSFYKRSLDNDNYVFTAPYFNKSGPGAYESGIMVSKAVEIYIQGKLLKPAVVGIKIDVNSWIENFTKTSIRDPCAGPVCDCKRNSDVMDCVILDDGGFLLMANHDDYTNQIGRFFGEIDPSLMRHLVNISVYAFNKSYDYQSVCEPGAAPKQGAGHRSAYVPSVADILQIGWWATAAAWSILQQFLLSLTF
Sequence of human Cav2.2 (P54289 952-1103 partner limits assumed): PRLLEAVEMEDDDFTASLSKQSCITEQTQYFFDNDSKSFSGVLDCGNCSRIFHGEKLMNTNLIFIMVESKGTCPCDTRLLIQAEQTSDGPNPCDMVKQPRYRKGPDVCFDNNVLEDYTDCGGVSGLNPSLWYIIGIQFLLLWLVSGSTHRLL
Sequence of human Cav2.2 (P54284 whole entry partner): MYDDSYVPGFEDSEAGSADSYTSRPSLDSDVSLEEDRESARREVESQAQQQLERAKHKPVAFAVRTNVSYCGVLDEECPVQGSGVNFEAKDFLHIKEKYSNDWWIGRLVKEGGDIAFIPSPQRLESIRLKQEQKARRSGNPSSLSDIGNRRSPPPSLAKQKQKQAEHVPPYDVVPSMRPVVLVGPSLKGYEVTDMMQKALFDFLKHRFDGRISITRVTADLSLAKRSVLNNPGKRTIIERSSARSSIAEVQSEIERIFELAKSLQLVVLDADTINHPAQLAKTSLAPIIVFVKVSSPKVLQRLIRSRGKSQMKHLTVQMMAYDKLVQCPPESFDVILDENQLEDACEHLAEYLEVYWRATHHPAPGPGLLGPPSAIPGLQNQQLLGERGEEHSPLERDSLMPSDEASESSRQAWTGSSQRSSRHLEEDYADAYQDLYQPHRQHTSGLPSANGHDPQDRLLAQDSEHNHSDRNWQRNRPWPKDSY

Compound | IC50 [µM]
O=C(CN1CCCC(c2ccccc2)(c2ccccc2)C1=O)N1CCC(=C(c2ccc(F)cc2)c2ccc(F)cc2)CC1 [Example 171, 1-(2-{4-[bis(4-fluorophenyl)methylene]piperidin-1-yl}-2-oxoethyl)-3,3-diphenylpiperidin-2-one] | 2.45
O=C(CN1CCC(c2ccccc2)(c2ccccc2)C1=O)NCc1ccc(C(F)(F)F)nc1 [Example 2, 2-(2-oxo-3,3-diphenylpyrrolidin-1-yl)-N-{[6-(trifluoromethyl)pyridin-3-yl]methyl}acetamide] | 5.28
O=C1N(CCN2CCN(c3cccc(C(F)(F)F)c3)CC2)CCC1(c1ccc(F)cc1)c1ccc(F)cc1 [Example 111, 3,3-bis(4-fluorophenyl)-1-(2-{4-[3-(trifluoromethyl)phenyl]piperazin-1-yl}ethyl)pyrrolidin-2-one] | 3.94
O=C1N(Cc2nc(-c3ccc(Cl)cc3)no2)CCC1(c1ccccc1)c1ccccc1 [Example 193, 1-{[3-(4-chlorophenyl)-1,2,4-oxadiazol-5-yl]methyl}-3,3-diphenylpyrrolidin-2-one] | 4.67
COCc1cc(/C=C/c2ccccc2OCC(O)CN(C)CCN2CCC(c3ccc(F)cc3)(c3ccc(F)cc3)C2=O)on1 (centres unmarked) [Example 107, 3,3-bis(4-fluorophenyl)-1-{2-[[2-hydroxy-3-(2-{(E)-2-[3-(methoxymethyl)isoxazol-5-yl]vinyl}phenoxy)propyl](methyl)amino]ethyl}pyrrolidin-2-one] | 1.88
O=C1N(CCCc2nc(-c3ccc(C(F)(F)F)cc3)no2)CCC1(c1ccccc1)c1ccccc1 [Example 155, 3,3-diphenyl-1-(3-{3-[4-(trifluoromethyl)phenyl]-1,2,4-oxadiazol-5-yl}propyl)pyrrolidin-2-one] | 4.37
O=C1C(c2ccccc2)CCCN1Cc1nc(-c2ccc(C(F)(F)F)cc2)no1 (centres unmarked) [Example 181, 3-phenyl-1-({3-[4-(trifluoromethyl)phenyl]-1,2,4-oxadiazol-5-yl}methyl)piperidin-2-one] | 3.27
O=C(CN1CCCC(c2ccccc2)(c2ccccc2)C1=O)N1CCC(Oc2cccc(C(F)(F)F)c2)CC1 [Example 162, 1-(2-oxo-2-{4-[3-(trifluoromethyl)phenoxy]piperidin-1-yl}ethyl)-3,3-diphenylpiperidin-2-one] | 1.86
O=C(CN1CCC(c2ccccc2)(c2ccccc2)C1=O)N1CCN(Cc2ccc(Cl)cc2Cl)CC1 [Example 43, 1-{2-[4-(2,4-dichlorobenzyl)piperazin-1-yl]-2-oxoethyl}-3,3-diphenylpyrrolidin-2-one] | 0.52
O=C1C(c2ccc(F)cc2)CCN1Cc1nc(-c2ccc(C(F)(F)F)nc2)no1 (centres unmarked) [Example 238, 3-(4-fluorophenyl)-1-({3-[6-(trifluoromethyl)pyridin-3-yl]-1,2,4-oxadiazol-5-yl}methyl)pyrrolidin-2-one] | 12.4
COc1ccc(C2(c3ccc(OC)cc3)CCCN(CCCN(C)CCCOc3cc(OC)cc(OC)c3)C2=O)cc1 [Example 116, 1-{3-[[3-(3,5-dimethoxyphenoxy)propyl](methyl)amino]propyl}-3,3-bis(4-methoxyphenyl)piperidin-2-one] | 2.01
O=C1N(CCN2CCc3ccc(C(F)(F)F)cc3C2)CCC1(c1ccccc1)c1ccccc1 [Example 67, 3,3-diphenyl-1-{2-[7-(trifluoromethyl)-3,4-dihydroisoquinolin-2(1H)-yl]ethyl}pyrrolidin-2-one] | 3.44
Cc1nc(-c2ccc(C(F)(F)F)cc2)sc1CN1CCC(c2ccccc2)(c2ccccc2)C1=O [Example 156, 1-({4-methyl-2-[4-(trifluoromethyl)phenyl]-1,3-thiazol-5-yl}methyl)-3,3-diphenylpyrrolidin-2-one] | 6.18
O=C1N(CCN2CCN(c3ncccn3)CC2)CCCC1(c1ccccc1)c1ccccc1 [Example 134, 3,3-diphenyl-1-[2-(4-pyrimidin-2-ylpiperazin-1-yl)ethyl]piperidin-2-one] | 6.48

The next lines start with the values.

IC50 [µM] | Compound
8.13 | O=C1N(S(=O)(=O)c2ccc(C(F)(F)F)cc2)CCC1(c1ccccc1)c1ccccc1 [Example 149, 3,3-diphenyl-1-{[4-(trifluoromethyl)phenyl]sulfonyl}pyrrolidin-2-one]
1.23 | O=C(CN1CCCC(c2ccccc2)(c2ccccc2)C1=O)N1CCN(C(c2ccccc2)c2ccccc2)C(=O)C1 [Example 83, 1-benzhydryl-4-[(2-oxo-3,3-diphenylpiperidin-1-yl)acetyl]piperazin-2-one]
3.19 | COc1ccc(C2(c3ccc(OC)cc3)CCCN(CCN(C)C3Cc4ccccc4C3)C2=O)cc1 [Example 113, 1-{2-[2,3-dihydro-1H-inden-2-yl(methyl)amino]ethyl}-3,3-bis(4-methoxyphenyl)piperidin-2-one]
2.1 | O=C(CN1CCC(c2ccccc2)(c2ccccc2)C1=O)NC(c1ccccc1)C1CC1 (centres unmarked) [Example 9, N-[cyclopropyl(phenyl)methyl]-2-(2-oxo-3,3-diphenylpyrrolidin-1-yl)acetamide]
13.4 | O=C(CN1CCC(c2ccccc2)(c2ccccc2)C1=O)NCc1nccs1 [Example 3, 2-(2-oxo-3,3-diphenylpyrrolidin-1-yl)-N-(1,3-thiazol-2-ylmethyl)acetamide]
4.93 | O=C(CN1CCC(c2ccccc2)(c2ccccc2)C1=O)N1Cc2ccc(F)cc2C1 [Example 26, 1-[2-(5-fluoro-1,3-dihydro-2H-isoindol-2-yl)-2-oxoethyl]-3,3-diphenylpyrrolidin-2-one]
8.84 | O=C(CN1CCC(c2ccccc2)(c2ccccc2)C1=O)Nc1ccc(C(F)(F)F)nc1 [Example 248, 2-(2-oxo-3,3-diphenylpyrrolidin-1-yl)-N-[6-(trifluoromethyl)pyridin-3-yl]acetamide]
2.43 | O=C(CN1CCCC(c2ccccc2)(c2ccccc2)C1=O)N1CCC(c2ccccc2)(c2ccccc2)C1 [Example 174, 1-[2-(3,3-diphenylpyrrolidin-1-yl)-2-oxoethyl]-3,3-diphenylpiperidin-2-one]
1.54 | O=C(CN1CCC(c2ccccc2)(c2ccccc2)C1=O)N1CCC(NCC(c2ccccc2)c2ccccc2)CC1 [Example 52, 1-(2-{4-[(2,2-diphenylethyl)amino]piperidin-1-yl}-2-oxoethyl)-3,3-diphenylpyrrolidin-2-one]
0.73 | O=C(CN1CCC(c2ccc(F)cc2)(c2ccc(F)cc2)C1=O)N1CC2(CCN(Cc3ccccc3)CC2)C1 [Example 152, 1-[2-(7-benzyl-2,7-diazaspiro[3.5]non-2-yl)-2-oxoethyl]-3,3-bis(4-fluorophenyl)pyrrolidin-2-one]
0.97 | O=C(CN1CCC(c2ccccc2)(c2ccccc2)C1=O)NC(c1ccccc1)c1ccccc1 [Example 14, N-benzhydryl-2-(2-oxo-3,3-diphenylpyrrolidin-1-yl)acetamide]
0.76 | O=C(CN1CCCC(c2ccccc2)(c2ccccc2)C1=O)N1CCC(NC(c2ccccc2)c2ccccc2)CC1 [Example 87, 1-{2-[4-(benzhydrylamino)piperidin-1-yl]-2-oxoethyl}-3,3-diphenylpiperidin-2-one]
2.2 | N-(1-benzhydryl-3-methylpyrrolidin-3-yl)-2-(2-oxo-3,3-diphenylpiperidin-1-yl)acetamide [Example 86]
1.83 | O=C1CN(CCN2CCC(c3ccccc3)(c3ccccc3)C2=O)CCN1C(c1ccccc1)c1ccccc1 [Example 66, 1-benzhydryl-4-[2-(2-oxo-3,3-diphenylpyrrolidin-1-yl)ethyl]piperazin-2-one]
0.86 | O=C(CN1CCCC(c2ccccc2)(c2ccccc2)C1=O)NC1CN(Cc2cccc(C(F)(F)F)c2F)C1 [Example 201, N-{1-[2-fluoro-3-(trifluoromethyl)benzyl]azetidin-3-yl}-2-(2-oxo-3,3-diphenylpiperidin-1-yl)acetamide]
6.29 | O=C1N(Cc2nc(-c3ccc(Br)cc3)no2)CCC1(c1ccc(F)cc1)c1ccc(F)cc1 [Example 233, 1-{[3-(4-bromophenyl)-1,2,4-oxadiazol-5-yl]methyl}-3,3-bis(4-fluorophenyl)pyrrolidin-2-one]
3.39 | O=C1N(Cc2nc(CCc3ccccc3Cl)no2)CCCC1(c1ccccc1)c1ccccc1 [Example 262, 1-({3-[2-(2-chlorophenyl)ethyl]-1,2,4-oxadiazol-5-yl}methyl)-3,3-diphenylpiperidin-2-one]
3.21 | O=C(CN1CCC(c2ccc(F)cc2Cl)C1=O)N1Cc2ccc(C(F)(F)F)cc2C1 (centres unmarked) [Example 269, 3-(2-chloro-4-fluorophenyl)-1-{2-oxo-2-[5-(trifluoromethyl)-1,3-dihydro-2H-isoindol-2-yl]ethyl}pyrrolidin-2-one]
3.12 | COc1ccc(C2(c3ccc(OC)cc3)CCCN(CCN(C)CCCOc3cc(OC)cc(OC)c3)C2=O)cc1 [Example 115, 1-{2-[[3-(3,5-dimethoxyphenoxy)propyl](methyl)amino]ethyl}-3,3-bis(4-methoxyphenyl)piperidin-2-one]
1.1 | COc1ccccc1N1CCN(CCN2CCCC(c3ccc(F)cc3)(c3ccc(F)cc3)C2=O)CC1 [Example 137, 3,3-bis(4-fluorophenyl)-1-{2-[4-(2-methoxyphenyl)piperazin-1-yl]ethyl}piperidin-2-one]
3.32 | O=C1N(CCN2CCN(c3ncccn3)CC2)CCCC1(c1ccc(F)cc1)c1ccc(F)cc1 [Example 136, 3,3-bis(4-fluorophenyl)-1-[2-(4-pyrimidin-2-ylpiperazin-1-yl)ethyl]piperidin-2-one]
